Source: PMC5651017, “Molecular Insight into the Acryloyl-CoA Hydration by AcuH for Acrylate Detoxification in Dimethylsulfoniopropionate-Catabolizing Bacteria” (Frontiers in Microbiology, 2017)

How the values were obtained:
Type in all cases: biochemical
Details in all cases: acryloyl-CoA made in situ by D. shibae PrpE from 0.5 mM acrylate, CoA and ATP; 1 uM RdAcuH, 5 min, 5 mM MgCl2, 100 mM Tris-HCl pH 8.0
RdAcuH [1] = molecular target: T1, RdAcuH (Roseovarius nubinhibens, UniProt A3SKA6); assay: HPLC / LC-MS of hydration to 3-HP-CoA
T1 construct: gene ISM_05820; no signal peptide; pET-22b (NdeI/XhoI) in E. coli BL21(DE3), Ni-NTA purified; active site between NTD of one subunit and CTD of the neighbouring subunit
T1 sequence (A3SKA6 1-258): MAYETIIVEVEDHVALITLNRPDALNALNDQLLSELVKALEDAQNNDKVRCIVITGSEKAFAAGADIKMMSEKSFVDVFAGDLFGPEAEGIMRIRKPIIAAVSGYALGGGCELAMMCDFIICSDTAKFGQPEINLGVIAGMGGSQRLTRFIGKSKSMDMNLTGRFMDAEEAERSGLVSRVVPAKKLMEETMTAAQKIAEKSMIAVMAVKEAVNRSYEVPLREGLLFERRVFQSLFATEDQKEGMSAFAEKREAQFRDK

RdAcuH [2] = molecular target: T2, RdAcuH (Roseovarius nubinhibens, UniProt A3SKA6, E132A); assay: relative activity, 3-HP-CoA formation by HPLC / LC-MS
T2 construct: gene ISM_05820; no signal peptide; pET-22b (NdeI/XhoI) in E. coli BL21(DE3), Ni-NTA purified; active site between NTD of one subunit and CTD of the neighbouring subunit
T2 sequence (A3SKA6 entry or part of it E132A): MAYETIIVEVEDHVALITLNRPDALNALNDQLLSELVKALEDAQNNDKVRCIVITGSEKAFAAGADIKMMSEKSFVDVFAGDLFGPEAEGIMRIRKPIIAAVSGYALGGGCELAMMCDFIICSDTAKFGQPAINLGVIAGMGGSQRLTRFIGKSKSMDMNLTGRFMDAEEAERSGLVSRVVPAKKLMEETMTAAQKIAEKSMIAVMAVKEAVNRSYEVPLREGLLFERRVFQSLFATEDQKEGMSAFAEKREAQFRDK

RdAcuH [3] = molecular target: T3, RdAcuH (Roseovarius nubinhibens, UniProt A3SKA6, E112A); assay: as above
T3 construct: gene ISM_05820; no signal peptide; pET-22b (NdeI/XhoI) in E. coli BL21(DE3), Ni-NTA purified; active site between NTD of one subunit and CTD of the neighbouring subunit
T3 sequence (A3SKA6 entry or part of it E112A): as the sequence (A3SKA6 entry or part of it E132A) above, with E112A, A132E counted along it

Compound	HPLC / LC-MS of hydration to 3-HP-CoA (RdAcuH [1])	relative activity (RdAcuH [2])	relative activity (RdAcuH [3])
CC(C)(COP(=O)(O)OP(=O)(O)OC[C@H]1O[C@@H](n2cnc3c(N)ncnc32)[C@H](O)[C@@H]1OP(=O)(O)O)[C@@H](O)C(=O)NCCC(=O)NCCSC(=O)CCO [3-HP-CoA]	RdAcuH has acryloyl-CoA hydratase activity and can catalyze acryloyl-CoA to 3-HP-CoA		
C=CC(=O)SCCNC(=O)CCNC(=O)[C@H](O)C(C)(C)COP(=O)(O)OP(=O)(O)OC[C@H]1O[C@@H](n2cnc3c(N)ncnc32)[C@H](O)[C@@H]1OP(=O)(O)O [acryloyl-CoA]	acryloyl-CoA was hydrated by RdAcuH and 3-HP-CoA was produced	mutations on each of the glutamates to alanine resulted in the inactivation of RdAcuH	mutations on each of the glutamates to alanine resulted in the inactivation of RdAcuH
